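Dose response: 5 concentrations. Exposure: 48 h. Format: 96-well plates. Endpoint: linear interpolation; highest concentration if not reached. The concentration for full growth arrest is given as TGI.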
Tests used:
Assay in all cases: DTP human tumour cell line panel, 48 h
NCI-H23 lung = test system: NCI-H23 lung
BT-549 breast = test system: BT-549 breast
LOX IMVI melanoma = test system: LOX IMVI melanoma
SR leukemia = test system: SR leukemia
DU-145 prostate = test system: DU-145 prostate
HL-60(TB) leukemia = test system: HL-60(TB) leukemia
A549 NSCLC = test system: A549 NSCLC
SF-539 CNS = test system: SF-539 CNS
M14 melanoma = test system: M14 melanoma
NCI/ADR-RES ovarian = test system: NCI/ADR-RES ovarian

SMILES | TGI (NCI-H23 lung) [µM] | TGI (BT-549 breast) [µM] | TGI (LOX IMVI melanoma) [µM] | TGI (SR leukemia) [µM] | TGI (DU-145 prostate) [µM] | TGI (HL-60(TB) leukemia) [µM] | TGI (A549 NSCLC) [µM] | TGI (SF-539 CNS) [µM] | TGI (M14 melanoma) [µM] | TGI (NCI/ADR-RES ovarian) [µM]
CC(=O)N=C1N(/C=C2\C(=O)Oc3ccccc3C2=O)C(=O)/C(=C/c2ccc(Cl)cc2Cl)N1C | > 100 | 62 | > 100 | 94.2 | > 100 | > 100 | > 100 | > 100 | > 100 | > 100
CCN(CC)CCNC(=O)c1cn2c(ccc3sc4ccccc4c(=O)c32)n1 | 28.4 | 28.5 | > 48.9 | 26.6 | 25 | 25.4 | 21 | 24.9 | 29 | 27.8
C=C1C(=O)O[C@@H]2C[C@]3(C)CC[C@]4(C)[C@H](CC[C@@H]5[C@@]6(C)CCC(=O)C(C)(C)[C@@H]6CC[C@]54C)[C@H]3[C@H]12 | 57.3 | 37.4 | 29.6 | 36.5 | 34.7 | 3.72 | 46.9 | 38.2 | 31.3 | 66.7
CCOP(=O)(OCC)C(C#N)Cc1ccco1 (stereo not given) | > 10 | > 10 | > 10 | > 10 | > 10 | > 10 | > 10 | > 10 | > 10 | > 10
C=C1C(=O)O[C@@H]2C=C(C)C3=CC(=O)[C@](C)(C[C@H](OC(=O)/C(C)=C\C)[C@@H]12)O3 | 3.43 | 1.98 | 0.979 | 0.786 | 15.8 | 0.563 | 10.1 | 6.09 | 2.46 | 3.64
O=C(N/N=C1/C(=O)c2c3ccccc3cc3cccc1c23)c1ccccc1 | > 100 | > 100 | > 100 | > 100 | > 56.4 | > 100 | > 100 | > 100 | > 100 | > 100
CC1(C)C2CC(=O)C1(C)C(OCc1ccccc1)C2 (stereo not given) | > 100 | > 100 | 68.4 | 81.1 | > 100 | 62.3 | > 100 | > 100 | 71.3 | > 100
NC1=CN2c3ccccc3N(CC(=O)O)C2C=C1 (stereo not given) | > 100 | > 100 | > 100 | > 100 | > 100 | > 100 | > 100 | > 100 | > 100 | > 100
CCCCCCCCCCCCOCCCOP(=O)([O-])OCC[N+](C)(C)C | 99.2 | 33.1 | 59.8 | > 73.5 | > 75.1 | 55.5 | > 100 | 54.9 | 98.2 | > 100
CC(C)=CCC/C(C)=C/CC/C(C)=C/CC/C(=C/CC/C(C)=C\CC/C(C)=C/CC/C(C)=C/CC/C(C)=C/Cc1cc(O)ccc1O)CO | 4.89 | 12.5 | > 23.4 | > 37.6 | > 100 | 9.5 | 22.6 | 2.48 | 4.88 | 19.4
COC(=O)c1cnc(Cl)cn1 | 54 | > 100 | > 100 | > 100 | > 100 | > 100 | > 100 | > 100 | > 100 | > 100
COc1ccc2cc(CN3CCC(C4CCNCC4)CC3)ccc2c1 | 33 | 24.3 | 2.94 | 5.16 | 15 | 3.38 | 36.8 | 4.03 | 3.15 | 21
Cc1cc(S(=O)(=O)Nc2nc(N)nc(N(C)C)n2)c(SCC(=O)O)cc1Cl | > 10 | > 10 | > 10 | > 10 | > 10 | > 10 | > 10 | > 10 | > 10 | > 10
CCOC(=O)C(NC(=O)c1ccccc1)(N1CCOCC1)C(F)(F)F (stereo not given) | > 100 | > 100 | > 100 | > 100 | > 100 | > 100 | > 100 | > 100 | > 100 | > 100
O=C(CNc1ccccc1[N+](=O)[O-])Nn1c(-c2ccccc2)nc2ccccc2c1=O | 76.5 | 35.3 | 24.7 | 71.7 | > 100 | > 100 | > 100 | 44.5 | 38.1 | 64.3

Reference: PubChem BioAssay (NCI)
